In patent EP2135604A1, “INFUSION PREPARATION FOR CANCER PATIENT” (Matsui, Hirofumi, priority 2007, dated 2008):

Columns and labels:
[1] = tested on: rat stomach mucous membrane cell line (RGM); assay: Culture in glucose-free, 3% glutamine medium, observation under a microscope; type: cell-based; conditions: RGM non-tumor cells, absence of glucose, 120 hours
Method: (§1) A rat stomach mucous membrane cell line (RGM) and a rat stomach cancer cell line (RGK-37) were cultured in Gibco#11330-032 DMEM/F12 medium and Sigma#D6421 DMEM/F12 medium, respectively. Each culture was cultured in the absence of glucose and in the presence of 3% glutamine for 120 hours. Subsequently, the cells were observed under a microscope.

[2] = tested on: rat stomach cancer cell line (RGK-37); assay: as above; type: cell-based; conditions: RGK-37 tumor cells, absence of glucose, 120 hours
Method: as §1

[3] = tested on: rats infected with Helicobacter pylori; conditions: reported by Patent Document 4; cited from earlier work
[4] = tested on: rat stomach mucous membrane cells; assay: Chemical carcinogenesis with L-glutamine added to the growth medium; type: cell-based; conditions: addition of L-glutamine to the growth medium
[5] = tested on: tumor cell lines of rat and human stomach cancer; assay: Protein levels at decreased glucose levels in the culture medium; type: cell-based; conditions: rat stomach cancer tumor cell line; decreasing glucose levels in the culture medium
[6] = tested on: tumor cell lines of rat and human stomach cancer; assay: as above; type: cell-based; conditions: human stomach cancer tumor cell line; decreasing glucose levels in the culture medium
[7] = tested on: normal stomach mucous cell line of rat; assay: as above; type: cell-based
[8] = tested on: rat stomach mucous membrane cell line (RGM); assay: BrdU uptake (ELISA) at different glucose concentrations in the growth medium; type: cell-based; conditions: medium with 0, 0.3 or 1.3 g/L of glucose, 1%FBS, 1% L-glutamine, 24 hours, relative to 3 g/L glucose (= 1)
Method: (§2) A rat stomach mucous membrane cell line (RGM) and a rat stomach cancer cell line (RGK-37) were cultured in Gibco#11330-032 DMEM/F12 medium and L-glutamine-free Sigma#D6421 DMEM/F12 medium, respectively. Each culture was supplemented with 10% FBS and was cultured during the logarithmic growth phase. The growth medium was then replaced with a growth medium containing 0, 0.3 or 1.3 g/L of glucose and supplemented with 1%FBS and 1% L-glutamine. After 24 hours of culturing, bromodeoxyuridine (BrdU) was added to each culture. 2 hours after the addition of BrdU, the BrdU uptake was measured by ELISA. The BrdU uptake for each culture is shown in Fig. 1 relative to the uptake obtained at a glucose concentration of 3 g/L (= 1).

[9] = tested on: rat stomach cancer cell line (RGK-37); assay: as above; type: cell-based; conditions: medium with 0, 0.3 or 1.3 g/L of glucose, 1%FBS, 1% L-glutamine, 24 hours, relative to 3 g/L glucose (= 1)
Method: as §2

Compound | cell survival (microscope) [1] | cell survival (microscope) ([1]; listed as glutamine) | cell survival / apoptosis (microscope) [2] | cell survival / apoptosis (microscope) ([2]; listed as glutamine) | onset of legions resembling stomach cancer [3] | chemical carcinogenesis [4] | protein levels [5] | protein levels [6] | protein levels [7] | BrdU uptake [8] | BrdU uptake [9]
NC(=O)CC[C@H](N)C(=O)O [L-glutamine] | can survive | survived | apoptosis is induced | apoptosis was induced | ability to suppress the onset of legions resembling stomach cancer | suppresses chemical carcinogenesis |  |  |  |  | 
OC[C@H]1OC(O)[C@H](O)[C@@H](O)[C@@H]1O (some centres unmarked) [glucose] |  |  |  |  |  |  | decreased protein levels | decreased protein levels | no changes | relatively constant | decreased relatively with decreasing concentrations of glucose
